Measured values reported in patent publication US20230114674A1, “ISOINDOLINE DERIVATIVE, AND PHARMACEUTICAL COMPOSITION AND USE THEREOF” (KANGPU BIOPHARMACEUTICALS, LTD., priority 2020, published 2023).

tested on: MM.1S myeloma cells; assay: Cell proliferation inhibition test by MTS assay; type: cell-based; settings: Homo sapiens, MM1.S, 72 hours drug treatment, 15,000 cells/well, 96-well plate
Experimental: Experimental Method for Cell Proliferation Inhibition Test by MTS Assay:
Proliferating MM.1S myeloma cells (ATCC, Cat #CRL-2974) were resuspended in RPMI-640 medium (Gibco, Cat #A10491-01) and counted using an automated cell counter. The cell suspension was diluted to the needed density and 100 μl (15,000 cells) of the cell suspension was plated per well in a 96-well plate. The plate was cultured in a 37° C., 5% CO2 incubator for 24 hours. On the day of administration, each compound was formulated into 20 mM stock solution with DMSO (Sigma, Cat #D2650), diluted with a medium to the needed concentration, and then added to the corresponding wells for the cell proliferation inhibition test with a drug of 4-fold serial dilution with 10 points. The final concentration of DMSO was 0.5%. After drug addition, the 96-well plate was cultured in a 37° C., 5% CO2 incubator for 72 hours. Then, 20 μl of MTS (Promega, Cat #G3581) was added to each well and the plate was cultured for 2 hours in a 37° C., 5% CO2 incubator, and then the absorbance at 490 nm of each well was recorded using an Ensight instrument. The reading of the cells at Day 0 was used as a negative control and the reading of cells with 0.5% DMSO at Day-3 was used as a positive control. Cell proliferation inhibition curve was plotted using GraphPad Prism 5 software and the IC50 value was calculated. Experiment results can be seen in Table 1.

Compound	IC50 [nM]
N#Cc1ccc(N2CCN(Cc3ccc(COc4cccc5c4CN([C@H]4CCC(=O)NC4=O)C5=O)c(Cl)c3)CC2)c(F)c1 [CM-1]	0.102
N#Cc1ccc(N2CCN(Cc3ccc(COc4cccc5c4CN([C@H]4CCC(=O)NC4=O)C5=O)c(F)c3)CC2)cc1C(F)(F)F [CM-6, (S)-4-(4-(4-(((2-(2,6-dioxopiperidin-3-yl)-1-oxoisoindolin-4-yl)oxy)methyl)-3-fluorobenzyl)piperazin-1-yl)-2-(trifluoromethyl)benzonitrile]	0.0409
O=C1CC[C@H](N2Cc3c(OCc4ccc(CN5CCN(c6ccc(C(F)(F)F)c(F)c6)CC5)cc4F)cccc3C2=O)C(=O)N1 [CM-16]	0.189
CCOc1nc(N2CCN(Cc3ccc(COc4cccc5c4CN([C@H]4CCC(=O)NC4=O)C5=O)cc3F)CC2)ccc1OC [CM-26]	0.465
COc1cc(C#N)ccc1N1CCN(Cc2ccc(COc3cccc4c3CN([C@H]3CCC(=O)NC3=O)C4=O)c(F)c2)CC1 [CM-27]	0.134
N#Cc1ccc(N2CCN(Cc3ccc(COc4cccc5c4CN([C@H]4CCC(=O)NC4=O)C5=O)c(F)c3)CC2)cn1 [CM-28]	0.102
N#Cc1ccc(N2CCN(Cc3ccc(COc4cccc5c4CN(C4CCC(=O)NC4=O)C5=O)c(F)c3)CC2)nc1 (stereo not drawn) [CM-29]	0.201
N#Cc1ccc(N2CCN(Cc3ccc(COc4cccc5c4CN([C@H]4CCC(=O)NC4=O)C5=O)c(F)c3)CC2)c(C#N)c1 [CM-30]	0.109
N#Cc1ccc(N2CCN(Cc3ccc(COc4cccc5c4CN([C@H]4CCC(=O)NC4=O)C5=O)c(F)c3)CC2)c(C(N)=O)c1 [CM-33]	0.0781
CNC(=O)c1cc(C#N)ccc1N1CCN(Cc2ccc(COc3cccc4c3CN([C@H]3CCC(=O)NC3=O)C4=O)c(F)c2)CC1 [CM-34]	0.0766
CCc1cc(C#N)ccc1N1CCN(Cc2ccc(COc3cccc4c3CN([C@H]3CCC(=O)NC3=O)C4=O)c(F)c2)CC1 [CM-35]	0.0962
CCOc1cc(C#N)ccc1N1CCN(Cc2ccc(COc3cccc4c3CN([C@H]3CCC(=O)NC3=O)C4=O)c(F)c2)CC1 [CM-36]	0.148
N#Cc1ccc(N2CCN(Cc3ccc(COc4cccc5c4CN([C@H]4CCC(=O)NC4=O)C5=O)c(F)c3)CC2)cc1C1CC1 [CM-37]	0.119
C=Cc1ccc(N2CCN(Cc3ccc(COc4cccc5c4CN([C@H]4CCC(=O)NC4=O)C5=O)c(F)c3)CC2)c(F)c1 [CM-38]	1.21
N#Cc1ccc(N2CCN(Cc3ccc(COc4cccc5c4CN([C@H]4CCC(=O)NC4=O)C5=O)c(F)c3)CC2)cc1Cl [CM-39]	0.0631
N#Cc1ccc(N2CCN(Cc3ccc(COc4cccc5c4CN([C@H]4CCC(=O)NC4=O)C5=O)c(F)c3)CC2)c(O)c1 [CM-40]	0.378
CCc1cc(N2CCN(Cc3ccc(COc4cccc5c4CN([C@H]4CCC(=O)NC4=O)C5=O)c(F)c3)CC2)ccc1C#N [CM-41]	0.116
C#Cc1ccc(N2CCN(Cc3ccc(COc4cccc5c4CN([C@H]4CCC(=O)NC4=O)C5=O)c(F)c3)CC2)c(F)c1 [CM-43]	0.576

More lines, now with the values ahead:

IC50 [nM]	Compound
0.0581	NC(=O)c1ccc(N2CCN(Cc3ccc(COc4cccc5c4CN([C@H]4CCC(=O)NC4=O)C5=O)cc3F)CC2)c(F)c1 [CM-23]
0.0388	NC(=O)c1ccc(N2CCN(Cc3ccc(COc4cccc5c4CN([C@H]4CCC(=O)NC4=O)C5=O)c(F)c3)CC2)c(F)c1 [CM-24]
0.0291	N#Cc1ncc(N2CCN(Cc3ccc(COc4cccc5c4CN([C@H]4CCC(=O)NC4=O)C5=O)cc3F)CC2)cc1C(F)(F)F [CM-25]
0.0271	N#Cc1ccc(N2CCN(Cc3ccc(COc4cccc5c4CN([C@H]4CCC(=O)NC4=O)C5=O)c(F)c3)CC2)cc1OCC1CC1 [CM-13]
0.0211	N#Cc1ccc(N2CCN(Cc3ccc(COc4cccc5c4CN([C@H]4CCC(=O)NC4=O)C5=O)c(F)c3)CC2)c(C(F)(F)F)c1 [CM-8]
0.0188	NC(=O)c1ccc(N2CCN(Cc3ccc(COc4cccc5c4CN([C@H]4CCC(=O)NC4=O)C5=O)c(F)c3)CC2)cc1F [CM-18, (S)-4-(4-(4-(((2-(2,6-dioxopiperidin-3-yl)-1-oxoisoindolin-4-yl)oxy)methyl)-3-fluorobenzyl)piperazin-1-yl)-2-fluorobenzamide]
0.0153	N#Cc1ccc(N2CCN(Cc3ccc(COc4cccc5c4CN([C@H]4CCC(=O)NC4=O)C5=O)cc3F)CC2)c(F)c1 [CM-4, (S)-4-(4-(4-(((2-(2,6-dioxopiperidin-3-yl)-1-oxoisoindolin-4-yl)oxy)methyl)-2-fluorobenzyl)piperazin-1-yl)-3-fluorobenzonitrile]
0.0139	O=C1CC[C@H](N2Cc3c(OCc4ccc(CN5CCN(c6ccc([N+](=O)[O-])cc6F)CC5)cc4F)cccc3C2=O)C(=O)N1 [CM-2, (S)-3-(4-((2-fluoro-4-((4-(2-fluoro-4-nitrophenyl)piperazin-1-yl)methyl)benzyl)oxy)-1-oxoisoindolin-2-yl)piperidine-2,6-dione]
0.0136	N#Cc1ccc(N2CCN(Cc3ccc(COc4cccc5c4CN([C@H]4CCC(=O)NC4=O)C5=O)c(F)c3)CC2)c(Cl)c1 [CM-9]
0.0132	N#Cc1ccc(N2CCN(Cc3ccc(COc4cccc5c4CN([C@H]4CCC(=O)NC4=O)C5=O)cc3F)CC2)cc1F [CM-20]
0.0111	COc1cc(N2CCN(Cc3ccc(COc4cccc5c4CN([C@H]4CCC(=O)NC4=O)C5=O)cc3F)CC2)ccc1C#N [CM-21]
0.0105	N#Cc1ccc(N2CCN(Cc3ccc(COc4cccc5c4CN([C@H]4CCC(=O)NC4=O)C5=O)c(F)c3)CC2)cc1 [CM-10]
0.0091	Cc1cc(N2CCN(Cc3ccc(COc4cccc5c4CN([C@H]4CCC(=O)NC4=O)C5=O)c(F)c3)CC2)ccc1C#N [CM-11]
0.0067	CCOc1cc(N2CCN(Cc3ccc(COc4cccc5c4CN([C@H]4CCC(=O)NC4=O)C5=O)c(F)c3)CC2)ccc1C#N [CM-12]
0.0064	N#Cc1ccc(N2CCN(Cc3ccc(COc4cccc5c4CN([C@H]4CCC(=O)NC4=O)C5=O)c(F)c3)CC2)c(F)c1 [CM-3, (S)-4-(4-(4-(((2-(2,6-dioxopiperidin-3-yl)-1-oxoisoindolin-4-yl)oxy)methyl)-3-fluorobenzyl)piperazin-1-yl)-3-fluorobenzonitrile]
0.0063	N#Cc1ccc(N2CCN(Cc3ccc(COc4cccc5c4CN([C@H]4CCC(=O)NC4=O)C5=O)c(F)c3)CC2)cc1F [CM-5, (S)-4-(4-(4-(((2-(2,6-dioxopiperidin-3-yl)-1-oxoisoindolin-4-yl)oxy)methyl)-3-fluorobenzyl)piperazin-1-yl)-2-fluorobenzonitrile]
0.0062	[2H]C([2H])([2H])Oc1cc(N2CCN(Cc3ccc(COc4cccc5c4CN([C@H]4CCC(=O)NC4=O)C5=O)c(F)c3)CC2)ccc1C#N [CM-15]
0.0054	COc1cc(N2CCN(Cc3ccc(COc4cccc5c4CN([C@H]4CCC(=O)NC4=O)C5=O)c(F)c3)CC2)ccc1C#N [CM-7, (S)-4-(4-(4-(((2-(2,6-dioxopiperidin-3-yl)-1-oxoisoindolin-4-yl)oxy)methyl)-3-fluorobenzyl)piperazin-1-yl)-2-methoxybenzonitrile]

tested on: MM.1S myeloma cells; assay: Cell proliferation inhibition test by CTG (CellTiter-Glo) assay; type: cell-based; settings: Homo sapiens, MM1.S, 120 hours drug treatment, 4,000 cells/well, 384-well plate, read-out: MM.2S IC50
Experimental: Experimental Method for Cell Proliferation Inhibition Test by CTG Assay:
The proliferation inhibitory activity of the compounds in the MM.1S myeloma cell model was determined by CellTiter-Glo (CTG) Luminescent Cell Viability Assay (Promega). MM.1S cells (ATCC, Cat #CRL-2974) at exponential phase were resuspended in RPMI-1640 (Gibco, Cat #11875-093)+10% FBS+1% penicillin/streptomycin+2 mM Glutamax medium and counted using an automated cell counter (ViCellXR). According to the optimized cell plating density in the pre-experiments, 40 μl of cell suspension at a density of 100,000 cells/ml was plated in the corresponding wells of a 384-well plate (4,000 cells/well) to ensure that cells in the control group were at linear growth phase within the five-day experimental period. The plated 384-well plate was cultured in a 37° C., 5% CO2 incubator for 24 hours. On the day of administration, each compound was formulated into 10 mM stock solution with DMSO (Sigma, Cat #276855-1L) and the stock solution was further diluted with DMSO to 20 μM and 20 nM working solutions. Drug treatment of MM.1S cells started at a concentration of up to 100 nM and the drug was serial diluted 4-fold with 10 points, with three replicate wells. Nanoliter volumes of compound solutions were added to the corresponding wells of the 384-well plate according to the needed concentration in a non-contact spraying manner by an HPD300 microscale automated dispenser (Tecan). The final concentration of DMSO was 0.5%. After drug addition, the 384-well plate was cultured in a 37° C., 5% CO2 incubator for 120 hours. After five days of drug treatment, 25 μl of CTG reagent (Promega, Cat #G7573) was added to each well, and the plate was shaken on a plate shaker for 10 minutes to ensure that the cells were fully lysed, and then left to stand at room temperature for 10 minutes to ensure a sufficient reaction of CTG with the substrate and the generation of a stable luminescent signal. The signal is proportional to the amount of ATP in the cell lysate, i.e., the number of metabolically active cells. Chemiluminescence of the cells in the plate was detected by an EnSpire instrument. The reading of the cells at Day 0 was used as a control for cells at growth starting point and the reading of cells with 0.5% DMSO at Day 5 was used as a control for cells under growth. Cell proliferation inhibition curve was plotted using XLFit software and the IC50 value was calculated. Experiment results can be seen in Table 2.

IC50 [nM]	Compound
0.0938	CNC(=O)c1ccc(N2CCN(Cc3ccc(COc4cccc5c4CN([C@H]4CCC(=O)NC4=O)C5=O)cc3F)CC2)cc1F [CM-45]
0.0687	CCOc1cc(N2CCN(Cc3ccc(COc4cccc5c4CN([C@H]4CCC(=O)NC4=O)C5=O)cc3F)CC2)ccc1C#N [CM-46]

Compound	IC50 [nM]
N#Cc1ccc(N2CCN(Cc3ccc(COc4cccc5c4CN([C@H]4CCC(=O)NC4=O)C5=O)c(F)c3)CC2)c(F)c1C(F)(F)F [CM-47]	0.135
